The experiment relates to adipose-derived mesenchymal stem cells (ADSC). Description: Amount of exosomes produced from ADSC, measured with Exo Counter (CD81 sandwich immunoassay) after excluding single factors. It is filed as cell-based. The conditions noted are these: 48-hour culture in DMEM F12 on nonwoven fabric; one factor excluded from the eight factors of Table 1, compared with all eight added; CD81 on exosome surface detected in culture supernatant; FIG. 1. Here is the method:
4×10^4 adipose-derived mesenchymal stem cells (ADSC) were seeded in each well. A nonwoven fabric (3D, BioNOCII, CESCO BIOENGINEERING CO., LTD. in non-adhesive 24 well plate (PrimeSurface (registered trademark) Sumitomo Bakelite Co., Ltd.) was used for cell culture. A basal medium was 1.5 ml of 10% FBS/DMEM F12 (Sigma-Aldrich). The number of days of culture was 6. Starting from Day 2, 1.5 ml of medium was exchanged daily, and the amount of sugar consumed in the used culture medium was measured.
Next, in the cell culture for 48 hours on Day 7 and Day 8, DMEM F12 was used as a medium so as to collect exosomes. In this 48-hour culture, 10% ExoFBS (Funakoshi Co., Ltd.) was added in Test #1. ExoFBS is a product from which bovine-derived exosomes are removed; therefore, influence on an exosome research is reduced.
In Test #3 of the 48-hour culture, only factor A was excluded from the eight factors shown in Table 1, and the other factors were added. In Test #4 of the 48-hour culture, only factor B was excluded from the eight factors shown in Table 1, and the other factors were added. In Test #5 of the 48-hour culture, only factor C was excluded from the eight factors shown in Table 1, and the other factors were added. In Test #6 of the 48-hour culture, only factor D was excluded from the eight factors shown in Table 1, and the other factors were added. In Test #7 of the 48-hour culture, only factor E was excluded from the eight factors shown in Table 1, and the other factors were added. In Test #8 of the 48-hour culture, only factor F was excluded from the eight factors shown in Table 1, and the other factors were added. In Test #9 of the 48-hour culture, only factor G was excluded from the eight factors shown in Table 1, and the other factors were added. In Test #10 of the 48-hour culture, only factor H was excluded from the eight factors shown in Table 1, and the other factors were added.
The amount of exosomes produced from ADSC was measured with Exo Counter (Kenwood), using 50 μl each from 1.5 ml of the collected culture supernatant. Exo Counter detects exosomes by sandwich immunoassay using disc and nanobeads antibodies in a surface antigen-specific manner. CD81 on the exosome surface was detected to quantify the exosome amount.

For `OC[C@H]1O[C@H](O[C@H]2O[C@H](CO)[C@@H](O)[C@H](O)[C@H]2O)[C@H](O)[C@@H](O)[C@@H]1O` [trehalose, Trehalose], the “effect of the factor on the amount of exosomes produced” value is “promoted the production of exosomes”.
As for TNFα, the entry is “inhibited the production of exosomes”; as for IL-1β, “promoted the production of exosomes”.
Next, “EGF [6045 Da protein consisting of 53 amino acid residues and three intramolecular disulfide bonds; ligand of epidermal growth factor receptor]”: “promotes the production of exosomes”.

Values taken from US20240279611A1, “EXOSOME PRODUCTION PROMOTING AGENT AND EXOSOME PRODUCTION PROMOTING METHOD” (FULLSTEM CO., LTD., priority 2021, published 2024).
